Columns and labels:
SGLT2 = target: T1, SGLT2 (Homo sapiens, UniProt P31639); settings: statement of Patent Document 1 (WO 2006/080421 A1); cited from earlier work
T1 sequence (P31639 1-672): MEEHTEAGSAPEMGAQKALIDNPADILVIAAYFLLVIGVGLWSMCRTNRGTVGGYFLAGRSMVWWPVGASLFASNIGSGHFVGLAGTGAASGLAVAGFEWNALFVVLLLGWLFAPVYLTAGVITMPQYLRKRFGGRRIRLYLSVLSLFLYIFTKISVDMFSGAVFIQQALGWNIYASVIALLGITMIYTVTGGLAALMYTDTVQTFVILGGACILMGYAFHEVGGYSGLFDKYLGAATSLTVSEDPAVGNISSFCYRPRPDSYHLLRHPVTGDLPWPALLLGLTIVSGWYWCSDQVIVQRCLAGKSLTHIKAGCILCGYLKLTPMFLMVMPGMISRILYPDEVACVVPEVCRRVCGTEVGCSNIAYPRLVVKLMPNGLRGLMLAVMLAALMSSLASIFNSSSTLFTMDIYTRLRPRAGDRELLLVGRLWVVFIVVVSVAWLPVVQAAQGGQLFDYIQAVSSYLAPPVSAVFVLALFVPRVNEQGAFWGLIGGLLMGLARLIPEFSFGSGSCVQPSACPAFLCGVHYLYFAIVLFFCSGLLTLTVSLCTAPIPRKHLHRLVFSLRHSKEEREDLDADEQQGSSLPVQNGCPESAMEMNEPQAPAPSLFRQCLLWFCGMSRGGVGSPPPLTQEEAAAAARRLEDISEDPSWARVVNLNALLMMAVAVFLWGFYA

[1] = Storage stability test (total amount of impurities by HPLC after storage in thermostatic chambers); format: physicochemical; settings: for Course of the total amounts of impurities during storage: both at 25° C. and 40° C.
Experimental: A storage stability test was carried out for monohydrate crystal and an amorphous form of the compound of Formula (XI). The monohydrate crystal of the compound of Formula (XI) was prepared according to the procedure of Example 1, Step 7. The amorphous form of the compound of Formula (XI) was obtained by the following procedure. The monohydrate crystal of the compound (15 g) was melted by heating on hot-stage, and allowed to be cooled to room temperature in a humidity-controlled desiccator (25° C./dry). The resulting solid was grinded in mortar to give a sample used as an amorphous form. The samples were stored in thermostatic chambers at 25° C. or 40° C., and the purity each of the samples was observed after 1 month, 3 months and 6 months.
The purity was determined in the following procedure. A portion each of the samples was weighed precisely (ca. 6 mg) and dissolved in a mixture of water and methanol (1:1) to be 10 mL accurately. The resulting solutions were used as sample solutions, and a portion (10 μL) each of the sample solutions was subjected to HPLC analysis. A total amount of impurities were calculated according to the following formula.
Measurement Condition of HPLC
Device: 2695 Separations Module (manufactured by Waters), 2487 Dual k Absorbance Detector (manufactured by Waters) or 996 Photodiode Array Detector (manufactured by Waters)
Column: YMC-Pack ODS-AM AM-302-3, 4.6 mm I.D.×15 cm, particle size 3 μm (manufactured by YMC)
Mobile phase: Eluent A=methanol, Eluent B=water
Gradient operation: Eluent A: 55% (15 min), Eluent A: 55% to 100% (10 min), 100% (5 min)
Detection wavelength: 220 nm
Sample cooler temperature: 5° C.
Period for measuring peak area: 30 minutes after injection
(§1) A storage stability test was carried out for co-crystal of the compound of Formula (XI) with sodium acetate according to the procedure of Test Example 2. The co-crystal of the compound of Formula (XI) with sodium acetate was prepared according to the procedure of Example 5. The samples were stored in thermostatic chambers at 25° C. or 40° C., and the purity each of the samples was observed after 1 month and 3 months. The measurement results were compared with those for the amorphous form obtained in Test Example 2.
as §1, with “potassium” for “sodium”, “6.” for “5.”

Course of the total amounts of impurities during storage [1] | Total amount of impurities (%) ([1]; storage at 25° C., 0 month) | Total amount of impurities (%) ([1]; storage at 25° C., 3 month) | Total amount of impurities (%) ([1]; storage at 25° C., 6 month) | Total amount of impurities (%) ([1]; storage at 40° C., 0 month) | Total amount of impurities (%) ([1]; storage at 40° C., 1 month) | Total amount of impurities (%) ([1]; storage at 40° C., 3 month) | Total amount of impurities (%) ([1]; storage at 40° C., 6 month) | Structure (SMILES) | Inhibitory activity against SGLT2 (SGLT2)
increased time-dependently | 0.35% | 0.66% | 0.87% | 0.35% | 0.62% | 0.92% | 1.46% | CCc1ccc(Cc2ccc3c(c2)[C@]2(OC3)O[C@H](CO)[C@@H](O)[C@H](O)[C@H]2O)cc1 [Amorphous form, 1,1-anhydro-1-C-[5-(4-ethylphenyl)methyl-2-(hydroxymethyl)phenyl]-β-D-glucopyranose] | –
maintained nearly constant for 3 months | 0.08% | 0.08% | – | 0.08% | 0.08% | 0.08% | – | CCc1ccc(Cc2ccc3c(c2)[C@]2(OC3)O[C@H](CO)[C@@H](O)[C@H](O)[C@H]2O)cc1 [Co-crystal with potassium acetate, 1,1-anhydro-1-C-[5-(4-ethylphenyl)methyl-2-(hydroxymethyl)phenyl]-β-D-glucopyranose] | –

The remaining lines, values behind:

Structure (SMILES) | Course of the total amounts of impurities during storage [1] | Total amount of impurities (%) ([1]; storage at 25° C., 0 month) | Total amount of impurities (%) ([1]; storage at 25° C., 3 month) | Total amount of impurities (%) ([1]; storage at 25° C., 6 month) | Total amount of impurities (%) ([1]; storage at 40° C., 0 month) | Total amount of impurities (%) ([1]; storage at 40° C., 1 month) | Total amount of impurities (%) ([1]; storage at 40° C., 3 month) | Total amount of impurities (%) ([1]; storage at 40° C., 6 month) | Inhibitory activity against SGLT2 (SGLT2)
CCc1ccc(Cc2ccc3c(c2)[C@]2(OC3)O[C@H](CO)[C@@H](O)[C@H](O)[C@H]2O)cc1 [Formula (B)] | – | – | – | – | – | – | – | – | excellent inhibitory activity
CCc1ccc(Cc2ccc3c(c2)[C@]2(OC3)O[C@H](CO)[C@@H](O)[C@H](O)[C@H]2O)cc1 [Co-crystal with sodium acetate, 1,1-anhydro-1-C-[5-(4-ethylphenyl)methyl-2-(hydroxymethyl)phenyl]-β-D-glucopyranose] | maintained nearly constant for 3 months | 0.07% | 0.07% | – | 0.07% | 0.07% | 0.08% | – | –
CCc1ccc(Cc2ccc3c(c2)[C@]2(OC3)O[C@H](CO)[C@@H](O)[C@H](O)[C@H]2O)cc1 [Monohydrate crystal, 1,1-anhydro-1-C-[5-(4-ethylphenyl)methyl-2-(hydroxymethyl)phenyl]-β-D-glucopyranose] | maintained nearly constant for 6 months | 0.30% | 0.29% | 0.32% | 0.30% | 0.32% | 0.31% | 0.36% | –

— patent US20110306778A1, “CRYSTAL OF SPIROKETAL DERIVATIVES AND PROCESS FOR PREPARATION OF SPIROKETAL DERIVATIVES” (priority 2008, published 2011)
